According to ChEMBL document CHEMBL1201862, “PubChem BioAssay data set” (2004):
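Growth conditions: 96-well plates. Treatment: test compound, 48 hours, 5 concentrations. Analysis: linear interpolation between bracketing concentrations; unreached endpoints set to highest concentration. GI50: concentration for 50% inhibition of growth.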 Activity calls are given as the source filed them. No stated cut-off is given here; in the data, active = GI50 up to about 1.1 µM and inactive = higher.

Assays:
Experiment in all cases: NCI tumour cell line growth inhibition, 48 h
CCRF-CEM = test system: CCRF-CEM
HCT-15 = test system: HCT-15
HT-29 = test system: HT-29
K562 = test system: K562
KM12 = test system: KM12
LOX IMVI = test system: LOX IMVI
MOLT-4 = test system: MOLT-4
Malme-3M = test system: Malme-3M
NCI-H522 = test system: NCI-H522
OVCAR-4 = test system: OVCAR-4
OVCAR-5 = test system: OVCAR-5
RPMI-8226 = test system: RPMI-8226
SK-MEL-2 = test system: SK-MEL-2
SK-OV-3 = test system: SK-OV-3
SN12C = test system: SN12C
SNB-75 = test system: SNB-75
U-251 = test system: U-251
MDA-MB-231 = test system: MDA-MB-231
PC-3 = test system: PC-3

Row | SMILES | GI50 (CCRF-CEM) | GI50 (HCT-15) | GI50 (HT-29) | GI50 (K562) | GI50 (KM12) | GI50 (LOX IMVI) | GI50 (MOLT-4) | GI50 (Malme-3M) | GI50 (NCI-H522) | GI50 (OVCAR-4) | GI50 (OVCAR-5) | GI50 (RPMI-8226) | GI50 (SK-MEL-2) | GI50 (SK-OV-3) | GI50 (SN12C) | GI50 (SNB-75) | GI50 (U-251) | GI50 (MDA-MB-231) | GI50 (PC-3)
1 | NNC(=S)N/N=C(\c1nc2ccc(Cl)cc2nc1O)C(O)c1cccc([N+](=O)[O-])c1 (centres undefined) | > 52.5 µM (inactive) | > 42.1 µM | > 36.1 µM (inactive) | > 45.3 µM (inactive) | > 100 µM (inactive) | > 40.5 µM (inactive) | > 100 µM (inactive) | > 100 µM (inactive) | > 100 µM (inactive) | > 72.1 µM (inactive) | > 100 µM (inactive) | > 43.3 µM (inactive) | > 100 µM (inactive) | > 100 µM (inactive) | 72.3 µM (inactive) | > 100 µM (inactive) | > 100 µM (inactive) | – | –
2 | N#CCC(=O)N/N=C(\C(=O)Nc1ccc(Cl)c(Cl)c1)C1CN(c2ccccc2)N=C1N (centres undefined) | 54 µM (inactive) | > 100 µM | > 100 µM (inactive) | > 100 µM (inactive) | > 100 µM (inactive) | > 100 µM (inactive) | 49.8 µM (inactive) | > 100 µM (inactive) | > 100 µM (inactive) | > 100 µM (inactive) | > 100 µM (inactive) | > 100 µM (inactive) | > 100 µM (inactive) | > 100 µM (inactive) | > 100 µM (inactive) | > 100 µM (inactive) | > 100 µM (inactive) | – | –
3 | CC(CC(=O)CO[C@H]1[C@H](O)[C@@H](O)[C@@H](O)[C@@H]2NC(=O)c3c(cc4c(c3O)OCO4)[C@H]21)OC1OC(CO)C(O)C(O)C1O (some centres undefined) | 0.182 µM (active) | 0.396 µM | 0.452 µM (active) | 0.309 µM (active) | 0.3 µM (active) | 0.255 µM (active) | 0.25 µM (active) | 0.488 µM (active) | 0.311 µM (active) | 0.277 µM (active) | 1.26 µM (inactive) | 0.397 µM (active) | 0.242 µM (active) | 0.469 µM (active) | 0.322 µM (active) | 0.207 µM (active) | 0.239 µM (active) | 0.355 µM (active) | 0.338 µM (active)
4 | Cn1cc(C(=O)C2CCCCC2)ccc1=O | > 100 µM (inactive) | > 100 µM | > 100 µM (inactive) | > 100 µM (inactive) | > 100 µM (inactive) | > 100 µM (inactive) | > 100 µM (inactive) | > 100 µM (inactive) | > 100 µM (inactive) | > 100 µM (inactive) | > 100 µM (inactive) | > 100 µM (inactive) | > 100 µM (inactive) | > 100 µM (inactive) | > 100 µM (inactive) | > 100 µM (inactive) | > 100 µM (inactive) | – | –
5 | CC(=O)Nc1ccc(C2C(C(=O)Nc3ccccc3)=C(C)NC(C)=C2C(=O)Nc2ccccc2)cc1 | 35.2 µM (inactive) | > 64.1 µM | > 100 µM (inactive) | > 100 µM (inactive) | > 100 µM (inactive) | > 79.6 µM (inactive) | > 100 µM (inactive) | > 100 µM (inactive) | 64 µM (inactive) | > 100 µM (inactive) | > 100 µM (inactive) | > 100 µM (inactive) | > 100 µM (inactive) | > 100 µM (inactive) | > 100 µM (inactive) | > 100 µM (inactive) | > 100 µM (inactive) | – | –
6 | O=C1C2C(C(=O)N1c1ccccc1)C1c3ccccc3C2C2C(=O)N(c3ccccc3)C(=O)C21 (centres undefined) | 4.9 µM (inactive) | 3.43 µM | 26.6 µM (inactive) | 3.42 µM (inactive) | 6.1 µM (inactive) | 10.5 µM (inactive) | 20.7 µM (inactive) | 3.9 µM (inactive) | 2.46 µM (inactive) | 22.8 µM (inactive) | 15.1 µM (inactive) | 4.39 µM (inactive) | 2.54 µM (inactive) | 8.22 µM (inactive) | 5.48 µM (inactive) | 3.73 µM (inactive) | 2.82 µM (inactive) | – | –
